In patent US20210002231A1 (Centre National de la Recherche Scientifique, priority 2018, published 2021):
Starred links: 1 amine or outer side, 2 acyl side, 3 side chain; linkers in the order of their positions; H or OH if unused. Non-standard residues stand in square brackets, D forms with d. Residues, ends and D or L forms follow the SMILES beside them. *: point of attachment. Nva(5-(4-Bn-piperidin-1-yl)) = N[C@@H](CCCN1CCC(Cc2ccccc2)CC1)C(=O)O; X5 = O=C1[C@@H](N[*:1])Cc2ccccc2CN1CCCC(=O)[*:2]; X1 = O=C1[C@@H](N[*:1])Cc2ccccc2CN1CCC(=O)[*:2]; Dmt = Cc1cc(O)cc(C)c1C[C@H](N)C(=O)O; d(hArg) = N=C(N)NCCCC[C@@H](N)C(=O)O; NMeβAla = CN(CCC(=O)[*:2])[*:1]; Nicotinoyl = O=C(c1cccnc1)*

Experiments:
human NPFF1R = human NPFF1R (Homo sapiens, UniProt Q9GZQ6); assay: Radioligand competition binding with [125I]-1-DMe-NPFF; design: expressed in transfected cells; HEK293-Glo20F cells (cAMP)
Chain of human NPFF1R (Q9GZQ6 whole entry): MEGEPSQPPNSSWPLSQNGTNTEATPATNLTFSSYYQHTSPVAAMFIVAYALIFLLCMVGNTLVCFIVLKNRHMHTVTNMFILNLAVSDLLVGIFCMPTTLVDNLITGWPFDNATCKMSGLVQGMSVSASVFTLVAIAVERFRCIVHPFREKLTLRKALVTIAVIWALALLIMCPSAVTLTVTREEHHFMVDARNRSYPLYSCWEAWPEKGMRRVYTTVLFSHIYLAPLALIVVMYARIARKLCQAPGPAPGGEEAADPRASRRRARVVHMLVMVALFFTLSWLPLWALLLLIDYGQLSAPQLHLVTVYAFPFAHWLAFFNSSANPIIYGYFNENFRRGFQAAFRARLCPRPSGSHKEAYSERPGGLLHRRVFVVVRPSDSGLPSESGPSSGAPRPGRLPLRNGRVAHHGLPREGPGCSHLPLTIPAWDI

NPFF2R = NPFF2R (Homo sapiens, UniProt Q9Y5X5); assay: as above; design: expressed in transfected cells; HEK293-Glo20F cells (cAMP)
Chain of NPFF2R (Q9Y5X5 whole entry): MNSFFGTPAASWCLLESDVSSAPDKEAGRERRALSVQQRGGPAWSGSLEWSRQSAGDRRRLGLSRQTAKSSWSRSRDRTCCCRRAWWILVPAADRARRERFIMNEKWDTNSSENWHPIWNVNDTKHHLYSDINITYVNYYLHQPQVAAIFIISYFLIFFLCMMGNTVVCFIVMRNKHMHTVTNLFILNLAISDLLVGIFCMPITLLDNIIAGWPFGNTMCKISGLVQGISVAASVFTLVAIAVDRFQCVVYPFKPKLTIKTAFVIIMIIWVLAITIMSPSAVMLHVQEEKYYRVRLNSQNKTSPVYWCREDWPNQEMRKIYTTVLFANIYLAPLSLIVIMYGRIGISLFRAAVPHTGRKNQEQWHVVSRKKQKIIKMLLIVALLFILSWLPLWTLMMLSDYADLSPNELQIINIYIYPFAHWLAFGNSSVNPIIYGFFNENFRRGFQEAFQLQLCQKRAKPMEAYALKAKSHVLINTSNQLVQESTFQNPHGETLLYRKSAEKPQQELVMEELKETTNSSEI

human MOPr [1] = target: T1, human MOPr (Homo sapiens, UniProt P35372); assay: BRET1 β-arrestin-2 recruitment assay; type: cell-based; design: expressed in transfected cells; host or cells: HEK293 cells stably expressing eYFP-β-arrestin-2, transiently transfected with the Rluc8-MOP plasmid; conditions: for Emax: read-out: MOPr (β-arrestin-2) Emax; for β-arrestin-2 recruitment: in words;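 for Emax: Emax relative to maximal DAMGO-induced BRET as 100%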;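 for MOPr (β-arrestin-2) Emax: Emax relative to maximal DAMGO-induced BRET as 100%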
T1 sequence (P35372 whole entry): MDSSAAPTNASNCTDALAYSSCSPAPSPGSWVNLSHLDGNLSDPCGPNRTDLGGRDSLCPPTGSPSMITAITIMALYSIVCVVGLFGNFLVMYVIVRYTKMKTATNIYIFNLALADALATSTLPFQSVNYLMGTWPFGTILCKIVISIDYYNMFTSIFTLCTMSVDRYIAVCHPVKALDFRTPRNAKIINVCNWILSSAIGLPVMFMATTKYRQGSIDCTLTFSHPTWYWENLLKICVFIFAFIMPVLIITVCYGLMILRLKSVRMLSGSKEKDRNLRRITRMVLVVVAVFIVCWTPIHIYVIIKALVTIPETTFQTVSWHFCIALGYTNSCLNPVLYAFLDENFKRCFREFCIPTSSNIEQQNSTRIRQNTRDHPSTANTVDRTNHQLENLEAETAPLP
Protocol: Peak response amplitudes were normalized to basal and maximal (cells permeabilized with 20 μM digitonin) fluorescence levels. 1.8. β-Arrestin-2 recruitment assay The β-arrestin-2 recruitment assay was performed as described [34; 45] with minor modifications. Briefly, two days prior the experiment, HEK293 cells stably expressing eYFP-tagged β-arrestin-2 were transfected with the plasmid encoding Rluc8-MOP receptor. β-Arrestin-2 recruitment was measured at 37° C. in presence of 5 μM Coelenterazine H, 5 min after agonist addition.

human MOPr [2] = target: T1, human MOPr; assay: cell-based; type: cell-based; design: expressed in transfected cells; HEK293-Glo20F cells (cAMP); conditions: for Emax: read-out: MOPr (cAMP) Emax; for MOPr-induced G protein activation: in words
Protocol: Stimulation by endogenous RF-amide peptides or test compounds for [^35S]-GTPγS binding to membranes from CHO cells expressing human NPFF1R or NPFF2R, were examined as reported. 1.6. Glo-Sensor cAMP Assay cAMP accumulation assay was essentially done as described with the following modifications: HEK293 cells stably expressing cAMP Glosensor-20F were used, with or without additional stable expression of each individual opioid receptor or NPFF1R. The cAMP responses were measured in presence of D-luciferin (1 mM).

human MOPr [3] = target: T1, human MOPr; assay: Radioligand competition binding with [3H]-diprenorphine; design: expressed in transfected cells; HEK293-Glo20F cells (cAMP)
[4] = Table 3B, — = non-detectable recruitment, read-out: MOPr (β-arrestin-2) EC50
[5] = Table 3B, read-out: MOPr (cAMP) EC50
[6] = Table 3a, HEK293-Glo20F-hMOPr cells, read-out: MOPr (cAMP) EC50
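Throughout, for MOPr (cAMP) Emax: Emax relative to DAMGO as 100%.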

SMILES | IC50 (human NPFF1R) [nM] | IC50 (NPFF2R) [nM] | EC50 (human MOPr [1]; [4]) [nM] | Emax (human MOPr [1]) [%] | EC50 (human MOPr [2]; [5]) [nM] | Emax (human MOPr [2]) [%] | β-arrestin-2 recruitment (human MOPr [1]) | MOPr-induced G protein activation (human MOPr [2]) | EC50 (human MOPr [2]; MOPr (cAMP) EC50, Table 3B) [nM] | EC50 (human MOPr [1]) [nM] | Ki (human NPFF1R) [nM] | Ki (NPFF2R) [nM] | Ki (human MOPr [3]) [nM] | EC50 (human MOPr [2]; [6]) [nM]
Cc1cc(O)cc(C)c1C[C@H](N)C(=O)N[C@H](CCCNC(=N)N)C(=O)N[C@H]1Cc2ccccc2CN(CCC(=O)N[C@@H](CCCN2CCC(Cc3ccccc3)CC2)C(=O)N[C@@H](Cc2ccc(O)cc2)C(N)=O)C1=O [DP0004, H-Dmt-D-Arg-Aba-β-Ala-Bpa-Tyr-NH2] (H-[Dmt][dR][X1][Nva(5-(4-Bn-piperidin-1-yl))]Y-NH2) | 50 to 500 | < 50 | 126 | 64 | 4.2 ± 0.7 | 88 ± 4 | – | – | – | – | – | – | – | –
Cc1cc(O)cc(C)c1C[C@H](N)C(=O)N[C@H](CCCNC(=N)N)C(=O)N[C@H]1Cc2ccccc2CN(CCC(=O)N[C@@H](CCCN2CCC(Cc3ccccc3)CC2)C(=O)N[C@@H](Cc2c[nH]c3ccccc23)C(N)=O)C1=O [DP0005, H-Dmt-D-Arg-Aba-β-Ala-Bpa-Trp-NH2] (H-[Dmt][dR][X1][Nva(5-(4-Bn-piperidin-1-yl))]W-NH2) | ~50 | < 50 | 98 | 42 | 7.9 ± 0.5 | 81 ± 0.6 | – | – | – | – | – | – | – | –
Cc1cc(O)cc(C)c1C[C@H](N)C(=O)N[C@H](CCCNC(=N)N)C(=O)N[C@H]1Cc2c(ccc3ccccc23)CN(CC(=O)N[C@@H](CCCN2CCC(Cc3ccccc3)CC2)C(=O)N[C@@H](Cc2ccccc2)C(N)=O)C1=O [DP0012, H-Dmt-D-Arg-1AnaGly-Bpa-Phe-NH2] | < 40 | < 40 | 650 | 22 | 15.1 ± 0.4 | 90 ± 2 | – | – | – | – | – | – | – | –
Cc1cc(O)cc(C)c1C[C@H](N)C(=O)N[C@H](CCCNC(=N)N)C(=O)N[C@@H](Cc1ccccc1)C(=O)N(C)CCC(=O)N[C@@H](CCCN1CCC(Cc2ccccc2)CC1)C(=O)N[C@@H](Cc1ccccc1)C(N)=O [DP0013, H-Dmt-D-Arg-Phe-N(Me)-β-Ala-Bpa-Phe-NH2] (H-[Dmt][dR]F[NMeβAla][Nva(5-(4-Bn-piperidin-1-yl))]F-NH2) | < 40 | ~40 | 20.5 | 101 | 0.53 ± 0.004 | 115 ± 4 | – | – | – | – | – | – | – | –
Cc1cc(O)cc(C)c1C[C@H](N)C(=O)N(C)[C@H](C)C(=O)N[C@H]1Cc2c(ccc3ccccc23)CN(CC(=O)N[C@@H](CCCN2CCC(Cc3ccccc3)CC2)C(=O)N[C@@H](Cc2ccccc2)C(N)=O)C1=O [DP0014, H-Dmt-N(Me)-D-Ala-1AnaGly-Bpa-Phe-NH2] | < 40 | ~40 | – | – | 5.3 | 76 | non-detectable | significant | – | – | – | – | – | –
Cc1cc(O)cc(C)c1C[C@H](N)C(=O)N[C@H](CCCNC(=N)N)C(=O)N[C@H]1Cc2ccccc2CN(CCCC(=O)N[C@@H](CCCN2CCC(Cc3ccccc3)CC2)C(=O)N[C@@H](Cc2ccccc2)C(N)=O)C1=O [DP0018, H-Dmt-D-Arg-AbaGABA-Bpa-Phe-NH2] (H-[Dmt][dR][X5][Nva(5-(4-Bn-piperidin-1-yl))]F-NH2) | 40 to 400 | < 40 | 95.8 | 31 | 5.5 | 108 | – | – | – | – | – | – | – | –
Cc1cc(O)cc(C)c1C[C@H](N)C(=O)N[C@H](CCCNC(=N)N)C(=O)N[C@@H](Cc1ccccc1)C(=O)NCCC(=O)N[C@@H](CCCN1CCC(Cc2ccccc2)CC1)C(=O)N[C@@H](Cc1ccccc1)C(N)=O [DP0019, H-Dmt-D-Arg-Phe-β-Ala-Bpa-Phe-NH2] (HELM PEPTIDE1{[Cc1cc(O)cc(C)c1C[C@H](N)C(=O)[*:2]].[dR].F.[bAla].[O=C([C@H](CCCN1CCC(Cc2ccccc2)CC1)N[*:1])[*:2]].F.[am]}$$$$V2.0) | 40 to 400 | 40 to 400 | 162 | 53 | 4 ± 0.4 | 101 ± 1 | – | – | – | – | – | – | – | –
Cc1cc(O)cc(C)c1C[C@H](N)C(=O)N[C@H](CCCNC(=N)N)C(=O)N[C@H]1Cc2ccccc2CN(CCCC(=O)N[C@@H](CCCN2CCC(Cc3ccccc3)CC2)C(=O)N[C@H](C(N)=O)C(C)C)C1=O [DP0020, H-Dmt-D-Arg-AbaGABA-Bpa-Val-NH2] (H-[Dmt][dR][X5][Nva(5-(4-Bn-piperidin-1-yl))]V-NH2) | 40 to 400 | 40 to 400 | 149 | 53 | 6.3 | 101 | – | – | – | – | – | – | – | –
Cc1cc(O)cc(C)c1C[C@H](N)C(=O)N[C@H](CCCNC(=N)N)C(=O)N[C@H]1Cc2c(ccc3ccccc23)CN(CC(=O)N[C@@H](CCCN2CCC(Cc3ccccc3)CC2)C(=O)N[C@H](C(N)=O)C(C)C)C1=O [DP0021, H-Dmt-D-Arg-1AnaGly-Bpa-Val-NH2] | 40 to 400 | < 40 | 109 ± 57 | 22 | 2.8 ± 0.4 | 102 ± 3 | – | – | – | – | – | – | – | –
Cc1cc(O)cc(C)c1C[C@H](N)C(=O)N[C@H](CCCNC(=N)N)C(=O)N[C@H]1Cc2ccccc2CN(CCCC(=O)N[C@@H](CCCN2CCC(Cc3ccccc3)CC2)C(=O)N[C@@H](Cc2c[nH]c3ccccc23)C(N)=O)C1=O [DP0022, H-Dmt-D-Arg-AbaGABA-Bpa-Trp-NH2] (H-[Dmt][dR][X5][Nva(5-(4-Bn-piperidin-1-yl))]W-NH2) | ~40 | < 40 | 617 ± 205 | 30 ± 0.7 | 5 | 90 | – | – | – | – | – | – | – | –
Cc1cc(O)cc(C)c1C[C@H](NC(=N)N)C(=O)N[C@H](CCCNC(=N)N)C(=O)N[C@H]1Cc2ccccc2CN(CCC(=O)N[C@@H](CCCN2CCC(Cc3ccccc3)CC2)C(=O)N[C@@H](Cc2ccccc2)C(N)=O)C1=O [DP0032, Guanidyl-Dmt-D-Arg-Aba-β-Ala-Bpa-Phe-NH2] | – | – | – | – | – | 63 | non-detectable | significant | 12.6 | – | – | – | – | –
Cc1cc(O)cc(C)c1C[C@H](N)C(=O)N[C@H](CCCCNC(=N)N)C(=O)N[C@H]1Cc2ccccc2CN(CCC(=O)N[C@@H](CCCN2CCC(Cc3ccccc3)CC2)C(=O)N[C@@H](Cc2ccccc2)C(N)=O)C1=O [DP0033, H-Dmt-D-hArg-Aba-β-Ala-Bpa-Phe-NH2] (H-[Dmt][d(hArg)][X1][Nva(5-(4-Bn-piperidin-1-yl))]F-NH2) | – | – | – | – | 24.9 | 41 | non-detectable | significant | – | – | – | – | – | –
Cc1cc(O)cc(C)c1C[C@H](N)C(=O)N[C@H](CCCCNC(=O)c1cccnc1)C(=O)N[C@H]1Cc2ccccc2CN(CCC(=O)N[C@@H](CCCN2CCC(Cc3ccccc3)CC2)C(=O)N[C@@H](Cc2ccccc2)C(N)=O)C1=O [DP0034, H-Dmt-D-Lys(Nic)-Aba-β-Ala-Bpa-Phe-NH2] (H-[Dmt][dK](Nicotinoyl)[X1][Nva(5-(4-Bn-piperidin-1-yl))]F-NH2) | – | – | – | ~18 | 3.9 | 92 | – | – | – | 5 to 50 | – | – | – | –
Cc1cc(O)cc(C)c1C[C@H](N)C(=O)N[C@H](CCCNC(=N)N)C(=O)N[C@H]1Cc2ccccc2CN(CC(=O)N[C@@H](CCCNC(=N)N)C(=O)N[C@@H](Cc2ccccc2)C(=O)O)C1=O [KGFF02, H-Dmt-D-Arg-Aba-Gly-Arg-Phe-OH] | – | – | – | – | – | 89 ± 2 | – | – | – | – | 2540 | 251 ± 25 | 0.59 ± 0.15 | 1.5 ± 0.7
Cc1cc(O)cc(C)c1C[C@H](N)C(=O)N[C@H](CCCNC(=N)N)C(=O)N[C@@H](Cc1ccccc1)C(=O)N[C@@H](CCCN)C(=O)N[C@@H](Cc1ccccc1)C(N)=O [KGFF05, H-Dmt-D-Arg-Phe-Orn-Phe-NH2] (HELM PEPTIDE1{[Cc1cc(O)cc(C)c1C[C@H](N)C(=O)[*:2]].[dR].F.[Orn].F.[am]}$$$$V2.0) | – | – | – | – | – | 94 ± 2 | – | – | – | – | 3100 | 360 ± 50 | 3.2 ± 1.1 | 59.3 ± 24.5
Cc1cc(O)cc(C)c1C[C@H](N)C(=O)N[C@@H](CCCNC(=N)N)C(=O)N[C@@H](Cc1ccccc1)C(N)=O [KGFF06, H-Dmt-Arg-Phe-NH2] (HELM PEPTIDE1{[Cc1cc(O)cc(C)c1C[C@H](N)C(=O)[*:2]].R.F.[am]}$$$$V2.0) | – | – | – | – | – | – | – | – | – | – | 147 ± 20 | 15.9 ± 1.8 | 46 ± 22 | 2300
Cc1cc(O)cc(C)c1C[C@H](N)C(=O)N[C@@H](CCCN1CCCCC1)C(=O)N[C@@H](Cc1ccccc1)C(N)=O [KGFF10, H-Dmt-Apa-Phe-NH2] | – | – | – | – | – | 91 ± 10 | – | – | – | – | > 10000 | 2100 | 68 ± 48 | 598 ± 35
Cc1cc(O)cc(C)c1C[C@H](N)C(=O)N[C@@H](CCCN1CCC(Cc2ccccc2)CC1)C(=O)N[C@@H](Cc1ccccc1)C(N)=O [KGFF11, H-Dmt-Bpa-Phe-NH2] | – | – | – | – | – | – | – | – | – | – | 2720 | 406 ± 95 | > 10000 | > 10000
